Data as given in ChEMBL document CHEMBL3739372 (Bioorg Med Chem, 2015).
pIC50: −log10 of the molar value.

Test: Inhibition of Influenza B virus neuraminidase R152K mutant

| Structure (SMILES) | pIC50 |
| --- | --- |
| CCOC(=O)c1cn(CC)c2ccc(-n3cc(C4=CCCCC4)nn3)cc2c1=O | 4.52 |
| CCOC(=O)C1=C[C@@H](OC(CC)CC)[C@H](NC(C)=O)[C@@H](N)C1 [OSELTAMIVIR] | 4.07 |
